The values that follow come from patent US8541407B2 (ArQule, Inc., priority 2010, dated 2013).

SMILES strings stand for the structures. Where a name gives a salt, the structure may show the parent alone.

For orientation: IC50 means the concentration that gives 50% inhibition.

Sequence of AKT1 (P31749 whole entry): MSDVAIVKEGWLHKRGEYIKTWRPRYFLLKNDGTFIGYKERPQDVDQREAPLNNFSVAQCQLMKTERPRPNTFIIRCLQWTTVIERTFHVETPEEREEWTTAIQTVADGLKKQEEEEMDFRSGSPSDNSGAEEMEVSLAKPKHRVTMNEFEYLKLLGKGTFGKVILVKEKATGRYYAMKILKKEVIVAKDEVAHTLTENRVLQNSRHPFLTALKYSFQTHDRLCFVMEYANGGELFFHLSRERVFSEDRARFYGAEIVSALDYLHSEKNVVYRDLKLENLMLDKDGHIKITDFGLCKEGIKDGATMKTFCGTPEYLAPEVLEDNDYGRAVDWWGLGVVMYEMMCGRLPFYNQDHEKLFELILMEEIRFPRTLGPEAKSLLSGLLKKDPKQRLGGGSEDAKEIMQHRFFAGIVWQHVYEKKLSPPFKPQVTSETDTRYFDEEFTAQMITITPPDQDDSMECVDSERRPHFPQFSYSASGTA

In the assay the target is AKT1 (Homo sapiens (Human), UniProt P31749). Briefly: Inactive Akt Alpha Screen Assay. As to conditions: non *labeled: Akt Alpha Screen assay; read-out: AKT1 biochemical assay, IC50. Here is the method:
AKT1 activity was assayed using the GSK3-derived biotinylated peptide substrate, crosstide (biotin-[…]), and AlphaScreen™ (Amplified Luminescent Proximity Homogeneous Assay) technology. AKT1 activation was achieved by the addition of the activating kinases PDK1 and MAPKAPK2, lipid vesicles, and ATP. The extent of peptide phosphorylation was determined using a phospho-AKT substrate antibody and acceptor beads conjugated to Protein A and donor beads conjugated to streptavidin that bind to the biotin on the peptide. Excitation of the donor beads converted ambient oxygen to excited singlet oxygen which, when in close proximity to acceptor beads, reacted with acceptor beads resulting in signal amplification. […] The plates were incubated for 30 minutes at room temperature, and then stopped in the dark by the addition of 10 μL stop/detection mixture prepared in assay buffer containing EDTA, AlphaScreen™ Streptavidin Donor and Protein A Acceptor beads, and phospho-AKT substrate antibody for final concentrations of 10 mM EDTA, 500 ng/well of both AlphaScreen™ Streptavidin Donor beads and Protein A Acceptor beads, and phospho-AKT substrate antibody at a final dilution of 1:350. Assay plates were incubated for 90 minutes at room temperature in the dark, and the plates were read on a Perkin Elmer Envision Multilabel plate reader (excitation wavelength: […], emission wavelength: 570 nm). […] Envision Instrument Settings: • Instrument: Perkin Elmer Envision • Plate: 96 well • Program Name: • Excitation: Ex Top • Mirror: General Dual—Slot 2 • Excitation Filter: CFP430 Ex.
For `OC1(c2ccccc2)CCN(Cc2ccc(-c3nnc4n3-c3cccnc3Nc3ccccc3-4)cc2)CC1` [Example 80, 1-(4-(9H-benzo[f]pyrido[2,3-b][1,2,4]triazolo[4,3-d][1,4]diazepin-3-yl)benzyl)-4-phenylpiperidin-4-ol], the IC50 is 1.9 µM. The value for `Cc1ccccc1NC(=O)NC1CCN(Cc2ccc(-c3nnc4n3-c3cccnc3Nc3ccccc3-4)cc2)CC1` [Example 179, 1-(1-(4-(9H-benzo[f]pyrido[2,3-b][1,2,4]triazolo[4,3-d][1,4]diazepin-3-yl)benzyl)piperidin-4-yl)-3-(o-tolyl)urea] was 0.7 µM. Regarding `c1ccc2c(c1)Nc1ncccc1-n1c(-c3ccc(CN4CCN(Cc5ccncc5)CC4)cc3)nnc1-2` [Example 74, 3-(4-((4-(pyridin-4-ylmethyl)piperazin-1-yl)methyl)phenyl)-9H-benzo[f]pyrido[2,3-b][1,2,4]triazolo[4,3-d][1,4]diazepine], the IC50 turned out to be 5.2 µM. As to `Cc1ccc(-c2nnc3n2-c2cccnc2Nc2ccccc2-3)cc1` [Example 6, hydrochloride], the IC50 came out at 13 µM.

`O=c1[nH]c2ccccc2n1C1CCN(Cc2ccc(-c3nnc4n3-c3cccnc3Nc3ccccc3-4)cc2)CC1` [Example 24, 1-(1-(4-(9H-benzo[f]pyrido[2,3-b][1,2,4]triazolo[4,3-d][1,4]diazepin-3-yl)benzyl)piperidin-4-yl)-1H-benzo[d]imidazol-2(3H)-one]: the IC50 turned out to be 0.083 µM. Regarding `OCc1ccc(-c2nnc3n2-c2cccnc2Nc2ccccc2-3)cc1` [Example 23, (4-(9H-benzo[f]pyrido[2,3-b][1,2,4]triazolo[4,3-d][1,4]diazepin-3-yl)phenyl)methanol], the IC50 amounted to 1 µM. Turning to `O=C(NCc1ccc(-c2nnc3n2-c2cccnc2Nc2ccccc2-3)cc1)c1ccccc1` [Example 99, N-(4-(9H-benzo[f]pyrido[2,3-b][1,2,4]triazolo[4,3-d][1,4]diazepin-3-yl)benzyl)benzamide], the IC50 is 0.2 µM.

For the compound `Cn1ccc(S(=O)(=O)NCc2ccc(-c3nnc4n3-c3cccnc3Nc3ccccc3-4)cc2)n1` [Example 104, N-(4-(9H-benzo[f]pyrido[2,3-b][1,2,4]triazolo[4,3-d][1,4]diazepin-3-yl)benzyl)-1-methyl-1H-pyrazole-3-sulfonamide], the IC50 amounted to 0.12 µM. As for `O=C(Nc1ccc(-c2nnc3n2-c2cccnc2Nc2ccccc2-3)cc1)c1ccc2ccccc2c1` [Example 28, N-(4-(9H-benzo[f]pyrido[2,3-b][1,2,4]triazolo[4,3-d][1,4]diazepin-3-yl)phenyl)-2-naphthamide], the IC50 was found to be 0.68 µM. Turning to `COCCN(C)Cc1ccc(-c2nnc3n2-c2cccnc2Nc2ccccc2-3)cc1` [Example 77, N-(4-(9H-benzo[f]pyrido[2,3-b][1,2,4]triazolo[4,3-d][1,4]diazepin-3-yl)benzyl)-2-methoxy-N-methylethanamine], the IC50 stood at 4.7 µM.

With `COc1ccc(CCNC(=O)NC2CCN(Cc3ccc(-c4nnc5n4-c4cccnc4Nc4ccccc4-5)cc3)CC2)cc1OC` [Example 169, 1-(1-(4-(9H-benzo[f]pyrido[2,3-b][1,2,4]triazolo[4,3-d][1,4]diazepin-3-yl)benzyl)piperidin-4-yl)-3-(3,4-dimethoxyphenethyl)urea], the IC50 came to 6 µM. Turning to `c1ccc(CNCc2ccc(-c3nnc4n3-c3cccnc3Nc3ccccc3-4)cc2)cc1` [Example 66, N-(4-(9H-benzo[f]pyrido[2,3-b][1,2,4]triazolo[4,3-d][1,4]diazepin-3-yl)benzyl)-1-phenylmethanamine], the concentration for half-maximal inhibition (IC50) stood at 1.9 µM. Turning to `c1ccc(-c2nnc(C3CCN(Cc4ccc(-c5nnc6n5-c5cccnc5Nc5ccccc5-6)cc4)CC3)o2)cc1` [Example 207, 2-(1-(4-(9H-benzo[f]pyrido[2,3-b][1,2,4]triazolo[4,3-d][1,4]diazepin-3-yl)benzyl)piperidin-4-yl)-5-phenyl-1,3,4-oxadiazole], the IC50 was determined as 0.66 µM. Under `O=S(=O)(NC1CCN(Cc2ccc(-c3nnc4n3-c3cccnc3Nc3ccccc3-4)cc2)CC1)C1CC1` [Example 149, N-(1-(4-(9H-benzo[f]pyrido[2,3-b][1,2,4]triazolo[4,3-d][1,4]diazepin-3-yl)benzyl)piperidin-4-yl)cyclopropanesulfonamide] stands 5.3 µM; under `N#CC1(c2ccccc2)CCN(Cc2ccc(-c3nnc4n3-c3cccnc3Nc3ccccc3-4)cc2)CC1` [Example 163, 1-(4-(9H-benzo[f]pyrido[2,3-b][1,2,4]triazolo[4,3-d][1,4]diazepin-3-yl)benzyl)-4-phenylpiperidine-4-carbonitrile], 7.3 µM.

As for `O=S(=O)(NC1(c2ccc(-c3nnc4n3-c3cccnc3Nc3ccccc3-4)cc2)CCC1)c1cccc(F)c1` [Example 204, N-(1-(4-(9H-benzo[f]pyrido[2,3-b][1,2,4]triazolo[4,3-d][1,4]diazepin-3-yl)phenyl)cyclobutyl)-3-fluorobenzenesulfonamide], the half-inhibitory concentration (IC50) stood at 0.76 µM.

As for `Cc1cccc(C(=O)N2CCN(Cc3ccc(-c4nnc5n4-c4cccnc4Nc4ccccc4-5)cc3)CC2)c1` [Example 136, (4-(4-(9H-benzo[f]pyrido[2,3-b][1,2,4]triazolo[4,3-d][1,4]diazepin-3-yl)benzyl)piperazin-1-yl)(m-tolyl)methanone], the IC50 was determined as 1.3 µM.

For `Nc1cc(-c2nnc3n2-c2cccnc2Nc2ccccc2-3)ccn1` [Example 3, 4-(9H-benzo[f]pyrido[2,3-b][1,2,4]triazolo[4,3-d][1,4]diazepin-3-yl)pyridin-2-amine], the IC50 worked out at 13 µM.

For the compound `FC(F)(F)c1ccc(-c2nnc3n2-c2cccnc2Nc2ccccc2-3)cc1` [Example 8, 3-(4-(trifluoromethyl)phenyl)-9H-benzo[f]pyrido[2,3-b][1,2,4]triazolo[4,3-d][1,4]diazepine], the IC50 came to 30 µM.

As to `CC(C)CC(=O)Nc1ccc(-c2nnc3n2-c2cccnc2Nc2ccccc2-3)cc1` [Example 33, N-(4-(9H-benzo[f]pyrido[2,3-b][1,2,4]triazolo[4,3-d][1,4]diazepin-3-yl)phenyl)-3-methylbutanamide], the IC50 was determined as 0.7 µM. The value for `NCc1ccc(-c2nnc3n2-c2cccnc2Nc2ccccc2-3)cc1` [Example 62, (4-(9H-benzo[f]pyrido[2,3-b][1,2,4]triazolo[4,3-d][1,4]diazepin-3-yl)phenyl)methanamine] was 0.69 µM. As to `O=C(Nc1ccc(-c2nnc3n2-c2cccnc2Nc2ccccc2-3)cc1)c1ccc(F)c(C(F)(F)F)c1` [Example 46, N-(4-(9H-benzo[f]pyrido[2,3-b][1,2,4]triazolo[4,3-d][1,4]diazepin-3-yl)phenyl)-4-fluoro-3-(trifluoromethyl)benzamide], the IC50 is 5.3 µM. For `COCC(=O)Nc1ccc(-c2nnc3n2-c2cccnc2Nc2ccccc2-3)cc1` [Example 53, N-(4-(9H-benzo[f]pyrido[2,3-b][1,2,4]triazolo[4,3-d][1,4]diazepin-3-yl)phenyl)-2-methoxyacetamide], the IC50 stood at 1.5 µM. `Cc1cccc(NC(=O)NCc2ccc(-c3nnc4n3-c3cccnc3Nc3ccccc3-4)cc2)c1` [Example 125, 1-(4-(9H-benzo[f]pyrido[2,3-b][1,2,4]triazolo[4,3-d][1,4]diazepin-3-yl)benzyl)-3-(m-tolyl)urea]: the IC50 is 0.48 µM.
